In US20260028328A1, “HETEROARYL DERIVATIVES AS DDRs INHIBITORS” (CHIESI FARMACEUTICI S.P.A., priority 2022, published 2026):
Where two headings read alike, the source gives them in different places.

How the values were obtained:
[1] = biological target: DDR2 (Homo sapiens (Human), UniProt Q16832); experiment: DDR2 binding assay (LanthaScreen Europium Kinase Binding assay)
Description: (§1) DDR1 and DDR2 binding assays were performed using Life Technologies LanthaScreen™ Europium Kinase Binding assay. The compounds were incubated with 5 nM DDR1 (Carna Biosciences) or 5 nM DDR2 (Life Technologies) for 1 h at rt in white 384-well OptiPlate (PerkinElmer), containing 20 nM or 10 nM Kinase Tracer 178 respectively and 2 nM Europium labelled anti-GST antibody (Life Technologies) in assay buffer (50 mM HEPES pH 7.5, 10 mM MgCI2, 1 mM EGTA and 0.01% BRIJ35). The ratio of fluorescence emission 665 nm/615 nm after excitation at 340 nm was obtained using the Tecan Spark 20M plate reader. IC50 values were determined in GraphPad Prism 7.0 software, using 4 parameter model: log(inhibitor) vs. response. IC50 values were converted in Ki using the Cheng-Prusoff equation (Ki=IC50/(1+[Tracer]/Kd).

[2] = biological target: DDR1 (Homo sapiens (Human), UniProt Q08345); experiment: DDR1 binding assay (LanthaScreen Europium Kinase Binding assay)
DDR1, sequence (Q08345 19-913): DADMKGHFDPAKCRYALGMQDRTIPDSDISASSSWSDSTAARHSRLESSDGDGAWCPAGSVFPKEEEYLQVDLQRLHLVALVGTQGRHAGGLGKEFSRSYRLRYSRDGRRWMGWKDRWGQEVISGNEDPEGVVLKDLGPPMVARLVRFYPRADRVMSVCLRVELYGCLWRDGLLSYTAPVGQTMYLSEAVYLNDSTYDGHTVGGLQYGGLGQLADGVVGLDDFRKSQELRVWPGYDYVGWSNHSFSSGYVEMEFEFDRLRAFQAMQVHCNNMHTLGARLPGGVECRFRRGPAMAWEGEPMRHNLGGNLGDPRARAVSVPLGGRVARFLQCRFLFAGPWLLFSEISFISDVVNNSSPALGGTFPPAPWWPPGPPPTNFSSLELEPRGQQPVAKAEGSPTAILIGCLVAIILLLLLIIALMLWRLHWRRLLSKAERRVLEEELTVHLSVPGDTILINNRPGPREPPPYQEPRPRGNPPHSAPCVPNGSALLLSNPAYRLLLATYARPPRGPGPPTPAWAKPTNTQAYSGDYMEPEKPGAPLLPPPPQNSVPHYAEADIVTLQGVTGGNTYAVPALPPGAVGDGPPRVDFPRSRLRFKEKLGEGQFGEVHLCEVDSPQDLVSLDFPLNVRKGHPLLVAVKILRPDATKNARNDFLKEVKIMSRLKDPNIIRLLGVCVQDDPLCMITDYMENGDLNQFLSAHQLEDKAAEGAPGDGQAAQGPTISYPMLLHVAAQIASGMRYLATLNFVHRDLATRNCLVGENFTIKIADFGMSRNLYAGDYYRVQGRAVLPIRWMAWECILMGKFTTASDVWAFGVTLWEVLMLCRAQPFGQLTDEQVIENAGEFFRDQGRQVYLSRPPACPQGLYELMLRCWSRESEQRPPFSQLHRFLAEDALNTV
Description: as §1

[3] = 5 nM DDR2, 10 nM Kinase Tracer 178, 1 h at rt, Ki from IC50 by Cheng-Prusoff, read-out: Ki DDR2
[4] = 5 nM DDR1, 20 nM Kinase Tracer 178, 1 h at rt, Ki from IC50 by Cheng-Prusoff, read-out: Ki DDR1

DDR2, sequence (Q16832 22-855): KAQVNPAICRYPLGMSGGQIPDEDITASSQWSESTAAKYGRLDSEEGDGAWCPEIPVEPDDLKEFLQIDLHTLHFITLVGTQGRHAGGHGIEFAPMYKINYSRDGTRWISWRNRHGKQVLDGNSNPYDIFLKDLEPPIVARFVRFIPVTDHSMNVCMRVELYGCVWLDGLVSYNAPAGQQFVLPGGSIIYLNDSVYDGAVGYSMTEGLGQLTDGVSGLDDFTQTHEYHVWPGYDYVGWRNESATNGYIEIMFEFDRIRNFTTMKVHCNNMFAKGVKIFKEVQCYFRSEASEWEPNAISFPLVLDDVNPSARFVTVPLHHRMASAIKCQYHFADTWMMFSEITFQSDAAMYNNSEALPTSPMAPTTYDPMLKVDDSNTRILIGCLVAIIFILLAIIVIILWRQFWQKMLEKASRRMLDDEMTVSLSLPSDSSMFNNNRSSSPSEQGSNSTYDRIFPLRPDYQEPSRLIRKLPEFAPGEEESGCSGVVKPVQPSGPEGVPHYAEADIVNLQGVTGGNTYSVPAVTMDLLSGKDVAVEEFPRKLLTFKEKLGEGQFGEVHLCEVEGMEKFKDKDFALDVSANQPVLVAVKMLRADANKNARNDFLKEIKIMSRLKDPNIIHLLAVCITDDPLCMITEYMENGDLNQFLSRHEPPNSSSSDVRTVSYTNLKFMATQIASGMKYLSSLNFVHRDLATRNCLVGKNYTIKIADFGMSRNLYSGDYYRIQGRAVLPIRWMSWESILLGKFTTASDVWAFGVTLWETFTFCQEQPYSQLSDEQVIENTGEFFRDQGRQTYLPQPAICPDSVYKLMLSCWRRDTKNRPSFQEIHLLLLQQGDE

Row | Ki [1, 3] [nM] | Ki [2, 4] [nM] | Ki ([1]; same binding assay, numeric values, read-out: DDR2 Ki) [nM] | Ki ([2]; same binding assay, numeric values, read-out: DDR1 Ki) [nM] | Compound
1 | 5 to 25 | < 5 |  |  | Cc1ccc(C(=O)Nc2cncc(C(F)(F)F)c2)cc1OC1CN(c2cnn3cccnc23)C1 [Example 142, 4-methyl-3-((1-(pyrazolo[1,5-a]pyrimidin-3-yl)azetidin-3-yl)oxy)-N-(5-(trifluoromethyl)pyridin-3-yl)benzamide]
2 | 5 to 25 | < 5 |  |  | O=C(Nc1cncc(C(F)(F)F)c1)c1ccc(OC(F)F)c(NC2CN(c3cnn4ccncc34)C2)c1 [Example 181, 4-(difluoromethoxy)-3-((1-(pyrazolo[1,5-a]pyrazin-3-yl)azetidin-3-yl)amino)-N-(5-(trifluoromethyl)pyridin-3-yl)benzamide]
3 | 5 to 25 | < 5 |  |  | COc1ccc(C(F)(F)F)cc1NC(=O)c1ccc(C)c(OC2CN(c3cnn4ccncc34)C2)c1 [Example 153, N-(2-methoxy-5-(trifluoromethyl)phenyl)-4-methyl-3-((1-(pyrazolo[1,5-a]pyrazin-3-yl)azetidin-3-yl)oxy)benzamide]
4 | 5 to 25 | 5 to 25 |  |  | Cc1ccc(C(=O)Nc2cncc(C(F)(F)F)c2)cc1NC1CN(c2cnn3cccnc23)C1 [Example 148, 4-methyl-3-((1-(pyrazolo[1,5-a]pyrimidin-3-yl)azetidin-3-yl)amino)-N-(5-(trifluoromethyl)pyridin-3-yl)benzamide]
5 | < 5 | < 5 |  |  | Cc1ccc(C(=O)Nc2cc(F)cc(C(F)(F)F)c2)cc1OC1CN(c2cnn3ccncc23)C1 [Example 162, N-(3-fluoro-5-(trifluoromethyl)phenyl)-4-methyl-3-((1-(pyrazolo[1,5-a]pyrazin-3-yl)azetidin-3-yl)oxy)benzamide]
6 | 5 to 25 | < 5 |  |  | CNc1ccn2ncc(N3CC(Oc4cc(C(=O)Nc5cncc(C(F)(F)F)c5)ccc4C)C3)c2n1 [Example 141, 4-methyl-3-((1-(5-(methylamino)pyrazolo[1,5-a]pyrimidin-3-yl)azetidin-3-yl)oxy)-N-(5-(trifluoromethyl)pyridin-3-yl)benzamide]
7 | < 5 | < 5 |  |  | Cc1ccc(C(=O)Nc2cc(C(C)(C)C)n(C)n2)cc1OC1CN(c2cnn3ccncc23)C1 [Example 154, N-(5-(tert-butyl)-1-methyl-1H-pyrazol-3-yl)-4-methyl-3-((1-(pyrazolo[1,5-a]pyrazin-3-yl)azetidin-3-yl)oxy)benzamide]
8 | 5 to 25 |  |  |  | Cc1ccc(C(=O)Nc2cncc(C(F)(F)F)c2)cc1C(C)C1CN(c2cnn3ccncc23)C1 (centres unmarked) [Example 176, 4-methyl-3-(1-(1-(pyrazolo[1,5-a]pyrazin-3-yl)azetidin-3-yl)ethyl)-N-(5-(trifluoromethyl)pyridin-3-yl)benzamide]
9 | 5 to 25 | < 5 |  |  | Cc1ccc(C(=O)Nc2cncc(C(F)(F)F)c2)cc1NC1CN(c2cncc(-c3cnn(C)c3)c2)C1 [Example 144, 4-methyl-3-((1-(5-(1-methyl-1H-pyrazol-4-yl)pyridin-3-yl)azetidin-3-yl)amino)-N-(5-(trifluoromethyl)pyridin-3-yl)benzamide]
10 | 5 to 25 | < 5 |  |  | Cc1ccc(C(=O)Nc2cncc(C(F)(F)F)c2)cc1C1CN(c2cnn3ccncc23)C1 [Example 184, 4-methyl-3-(1-(pyrazolo[1,5-a]pyrazin-3-yl)azetidin-3-yl)-N-(5-(trifluoromethyl)pyridin-3-yl)benzamide]
11 | < 5 | < 5 |  |  | Cc1ccc(C(=O)Nc2cccc(OC(F)(F)F)c2)cc1OC1CN(c2cnn3ccncc23)C1 [Example 161, 4-methyl-3-((1-(pyrazolo[1,5-a]pyrazin-3-yl)azetidin-3-yl)oxy)-N-(3-(trifluoromethoxy)phenyl)benzamide]
12 | 5 to 25 |  |  |  | Cc1ccc(C(=O)Nc2cncc(C(F)(F)F)c2)cc1OC1CN(c2cncc(C(N)=O)c2)C1 [Example 139, 5-(3-(2-methyl-5-((5-(trifluoromethyl)pyridin-3-yl)carbamoyl)phenoxy)azetidin-1-yl)nicotinamide]
13 | < 5 | < 5 |  |  | Cc1ccc(C(=O)Nc2cncc(OC(F)(F)F)c2)cc1OC1CN(c2cnn3ccncc23)C1 [Example 157, 4-methyl-3-((1-(pyrazolo[1,5-a]pyrazin-3-yl)azetidin-3-yl)oxy)-N-(5-(trifluoromethoxy)pyridin-3-yl)benzamide]
14 | 5 to 25 | < 5 |  |  | Cc1ccc(C(=O)Nc2cncc(C(F)(F)F)c2)cc1OC1CN(c2cncc3c2cnn3C)C1 [Example 169, 4-methyl-3-((1-(1-methyl-1H-pyrazolo[3,4-c]pyridin-4-yl)azetidin-3-yl)oxy)-N-(5-(trifluoromethyl)pyridin-3-yl)benzamide]
15 | 5 to 25 | 5 to 25 |  |  | Cc1ccc(C(=O)Nc2cc(C(C)(C)C)no2)cc1NC1CN(c2cnn3ccncc23)C1 [Example 149, N-(3-(tert-butyl)isoxazol-5-yl)-4-methyl-3-((1-(pyrazolo[1,5-a]pyrazin-3-yl)azetidin-3-yl)amino)benzamide]
16 | > 100 | 5 to 25 |  |  | Cc1ccc(C(=O)Nc2cncc(C(F)(F)F)c2)cc1OC1CN(c2cnn3ccc(N4CCC(CO)CC4)nc23)C1 [Example 180, 3-((1-(5-(4-(hydroxymethyl)piperidin-1-yl)pyrazolo[1,5-a]pyrimidin-3-yl)azetidin-3-yl)oxy)-4-methyl-N-(5-(trifluoromethyl)pyridin-3-yl)benzamide]
17 | < 5 | < 5 |  |  | Cc1ccc(C(=O)Nc2cncc(C(F)(F)F)c2)cc1NC1CN(c2cnc3cnccn23)C1 [Example 147, 3-((1-(imidazo[1,2-a]pyrazin-3-yl)azetidin-3-yl)amino)-4-methyl-N-(5-(trifluoromethyl)pyridin-3-yl)benzamide]
18 | < 5 | < 5 |  |  | Cc1ccc(C(=O)Nc2cncc(C(F)(F)F)c2)cc1SC1CN(c2cnn3ccncc23)C1 [Example 178, 4-methyl-3-((1-(pyrazolo[1,5-a]pyrazin-3-yl)azetidin-3-yl)thio)-N-(5-(trifluoromethyl)pyridin-3-yl)benzamide]
19 |  |  | 311 | 114 | Cc1ccc(C(=O)Nc2cncc(C(F)(F)F)c2)cc1NC1CN(C(=O)c2cnn3ccncc23)C1 [Compound C1, 4-methyl-3-((1-(pyrazolo[1,5-a]pyrazine-3-carbonyl)azetidin-3-yl)amino)-N-(5-(trifluoromethyl)pyridin-3-yl)benzamide, reference compound]
20 | 5 to 25 | < 5 |  |  | Cc1ccc(C(=O)Nc2cncc(C(F)(F)F)c2)cc1OC1CN(c2cncnc2)C1 [Example 135, 4-methyl-3-((1-(pyrimidin-5-yl)azetidin-3-yl)oxy)-N-(5-(trifluoromethyl)pyridin-3-yl)benzamide]
21 | < 5 | < 5 |  |  | Cc1ccc(C(=O)Nc2cc(C(C)(C)C)on2)cc1OC1CN(c2cnn3ccncc23)C1 [Example 155, N-(5-(tert-butyl)isoxazol-3-yl)-4-methyl-3-((1-(pyrazolo[1,5-a]pyrazin-3-yl)azetidin-3-yl)oxy)benzamide]
22 | < 5 | < 5 |  |  | Cc1ccc(C(=O)Nc2cncc(C(F)(F)F)c2)cc1OC1CN(c2cncc(-c3cnn(C)c3)c2)C1 [Example 143, 4-methyl-3-((1-(5-(1-methyl-1H-pyrazol-4-yl)pyridin-3-yl)azetidin-3-yl)oxy)-N-(5-(trifluoromethyl)pyridin-3-yl)benzamide]
23 | 5 to 25 | < 5 |  |  | Cc1ccc(C(=O)Nc2cncc(C(F)(F)F)c2)cc1OC1CN(c2cnn3ccc(N4CCOCC4)nc23)C1 [Example 170, 4-methyl-3-((1-(5-morpholinopyrazolo[1,5-a]pyrimidin-3-yl)azetidin-3-yl)oxy)-N-(5-(trifluoromethyl)pyridin-3-yl)benzamide]
24 | < 5 | < 5 |  |  | CC(=O)Nc1cncc(N2CC(Oc3cc(C(=O)Nc4cncc(C(F)(F)F)c4)ccc3C)C2)c1 [Example 145, 3-((1-(5-acetamidopyridin-3-yl)azetidin-3-yl)oxy)-4-methyl-N-(5-(trifluoromethyl)pyridin-3-yl)benzamide]
25 | 5 to 25 | < 5 |  |  | Cc1ccc(C(=O)Nc2cncc(C(F)(F)F)c2)cc1OC1CN(c2cnn3ccc(N4CCN(C)CC4)nc23)C1 [Example 166, 4-methyl-3-((1-(5-(4-methylpiperazin-1-yl)pyrazolo[1,5-a]pyrimidin-3-yl)azetidin-3-yl)oxy)-N-(5-(trifluoromethyl)pyridin-3-yl)benzamide]
26 | 5 to 25 | < 5 |  |  | CC(=O)Nc1ccn2ncc(N3CC(Oc4cc(C(=O)Nc5cncc(C(F)(F)F)c5)ccc4C)C3)c2n1 [Example 138, 3-((1-(5-acetamidopyrazolo[1,5-a]pyrimidin-3-yl)azetidin-3-yl)oxy)-4-methyl-N-(5-(trifluoromethyl)pyridin-3-yl)benzamide]
27 | 5 to 25 |  |  |  | Cc1ccc(C(=O)Nc2cncc(C(F)(F)F)c2)cc1C(C)C1CN(c2cnn3ccncc23)C1 (centres unmarked) [Example 175, 4-methyl-3-(1-(1-(pyrazolo[1,5-a]pyrazin-3-yl)azetidin-3-yl)ethyl)-N-(5-(trifluoromethyl)pyridin-3-yl)benzamide]

Row | Compound | Ki [1, 3] [nM] | Ki [2, 4] [nM] | Ki ([1]; same binding assay, numeric values, read-out: DDR2 Ki) [nM] | Ki ([2]; same binding assay, numeric values, read-out: DDR1 Ki) [nM]
28 | 4-methyl-3-((1-(pyrimidin-5-yl)azetidin-3-yl)thio)-N-(5-(trifluoromethyl)pyridin-3-yl)benzamide [Example 177] | 25 to 100 | 5 to 25 |  | 
